# According to US10973817B2, “Pharmaceutical compounds” (SENTINEL ONCOLOGY LIMITED, priority 2014, dated 2021):
# Structures can show the parent of a compound that is named as a salt.
# Biological target: Chk-1 kinase (Homo sapiens (Human), UniProt O14757)
# Experiment: Chk-1 kinase inhibiting activity (33P-ATP filter-binding kinase assay)
# Assay type: biochemical
# Conditions: against Chk-1 kinase; recombinant full length GST-tagged, 0.5 nM; CHKtide substrate 20 μM; 120 minutes at room temperature
# Method: Chk-1 Kinase Inhibiting Activity
# The compounds of the invention were tested for activity against Chk-1 kinase using the materials and protocols set out below.
# Base Reaction buffer: 20 mM Hepes (pH 7.5), 10 mM MgCl2, 1 mM EGTA, 0.02% Brij35, 0.02 mg/ml BSA, 0.1 mM Na3VO4, 2 mM DTT, 1% DMSO • Required cofactors are added individually to each kinase reaction Reaction Procedure: (i) Prepare indicated substrate in freshly prepared Base Reaction Buffer (ii) Deliver any required cofactors to the substrate solution above (iii) Deliver indicated kinase into the substrate solution and gently mix (iv) Deliver compounds in DMSO into the kinase reaction mixture (v) Deliver ^33P-ATP (specific activity 0.01 μCi/μl final) into the reaction mixture to initiate the reaction. (vi) Incubate kinase reaction for 120 minutes at room temperature (vii) Reactions are spotted onto P81 ion exchange paper (Whatman #3698-915) (viii) Wash filters extensively in 0.1% phosphoric acid. (ix) Dry filters and measure counts in scintillation counter Kinase Information: CHK-1H—Genbank Accession # AF016582 Recombinant full length construct, N-terminal GST tagged, purified from insect cells. […]
# From the results obtained by following the above protocol, the IC50 values against Chk-1 kinase of each of the compounds of Examples 1-153 were determined and these are shown in Table 3.
# Sequence of Chk-1 kinase (O14757 whole entry): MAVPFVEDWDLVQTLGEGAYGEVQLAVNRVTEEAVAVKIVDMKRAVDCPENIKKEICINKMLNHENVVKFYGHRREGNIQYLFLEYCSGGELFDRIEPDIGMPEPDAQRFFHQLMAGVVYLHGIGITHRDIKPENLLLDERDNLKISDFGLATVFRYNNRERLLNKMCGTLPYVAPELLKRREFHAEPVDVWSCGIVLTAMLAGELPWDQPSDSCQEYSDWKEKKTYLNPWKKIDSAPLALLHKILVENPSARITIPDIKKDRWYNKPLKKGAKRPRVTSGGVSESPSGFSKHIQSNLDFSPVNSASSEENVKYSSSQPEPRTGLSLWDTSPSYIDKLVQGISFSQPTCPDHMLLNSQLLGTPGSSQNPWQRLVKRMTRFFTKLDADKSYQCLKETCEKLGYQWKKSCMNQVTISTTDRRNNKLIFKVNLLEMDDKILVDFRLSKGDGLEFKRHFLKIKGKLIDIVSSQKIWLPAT
row,Structure (SMILES),IC50 [nM]
1,"COc1cc(CN2CC[C@H](OC)C2)ccc1-c1cc(Nc2cnc(C#N)cn2)n[nH]1 [Example 124, 5-[[5-[2-methoxy-4-[[(3S)-3-methoxypyrrolidin-1H-yl]methyl]phenyl]-1H-pyrazol-3-yl]amino]pyrazine-2-carbonitrile, hydrochloride]",0.25
2,"COc1cc(CN2CC[C@@H](OC)C2)ccc1-c1cc(Nc2cnc(C#N)cn2)n[nH]1 [Example 125, 5-[[5-[2-methoxy-4-[[(3R)-3-methoxypyrrolidin-1H-yl]methyl]phenyl]-1H-pyrazol-3-yl]amino]pyrazine-2-carbonitrile, hydrochloride]",0.28
